Assay results reported in ChEMBL document CHEMBL4406870, “Design, synthesis, and biological evaluation of 4-phenoxyquinoline derivatives as potent c-Met kinase inhibitor” (Bioorg Med Chem Lett, 2019).

How the values were obtained:
MKN-45 = assay: cells; details: Homo sapiens, MKN-45, 72 h
Description: Cytotoxicity against human MKN45 cells assessed as reduction in cell viability incubated for 72 hrs by MTT assay

NCI-H460 [1] = assay: cells; details: Homo sapiens, NCI-H460, 72 h
Description: Cytotoxicity against human H460 cells assessed as reduction in cell viability incubated for 72 hrs by MTT assay

U-87 MG = assay: cells; details: Homo sapiens, 72 h
Description: Cytotoxicity against human U87MG cells assessed as reduction in cell viability incubated for 72 hrs by MTT assay

HT-29 [2] = assay: cells; details: Homo sapiens, HT-29, 72 h
Description: Cytotoxicity against human HT-29 cells assessed as reduction in cell viability incubated for 72 hrs by MTT assay

A549 [3] = assay: cells; details: Homo sapiens, A549, 72 h
Description: Cytotoxicity against human A549 cells assessed as reduction in cell viability incubated for 72 hrs by MTT assay

[4] = target: Hepatocyte growth factor receptor (Homo sapiens, UniProt P08581); assay: Inhibition of cMET (unknown origin) using poly (Glu, Tyr) 4:1 as substrate incubated for 30 mins by HTRF assay
HT-29 [5] = assay: Potency index, ratio of IC50 of foretinib to IC50 of compound for cytotoxicity against human HT-29 cells assessed as reduction in cell viability incubated for 72 hrs by MTT assay; type: functional
A549 [6] = assay: Potency index, ratio of IC50 of foretinib to IC50 of compound for cytotoxicity against human A549 cells assessed as reduction in cell viability incubated for 72 hrs by MTT assay; type: functional
NCI-H460 [7] = assay: Potency index, ratio of IC50 of foretinib to IC50 of compound for cytotoxicity against human H460 cells assessed as reduction in cell viability incubated for 72 hrs by MTT assay; type: functional

Sequence of Hepatocyte growth factor receptor (P08581 whole entry): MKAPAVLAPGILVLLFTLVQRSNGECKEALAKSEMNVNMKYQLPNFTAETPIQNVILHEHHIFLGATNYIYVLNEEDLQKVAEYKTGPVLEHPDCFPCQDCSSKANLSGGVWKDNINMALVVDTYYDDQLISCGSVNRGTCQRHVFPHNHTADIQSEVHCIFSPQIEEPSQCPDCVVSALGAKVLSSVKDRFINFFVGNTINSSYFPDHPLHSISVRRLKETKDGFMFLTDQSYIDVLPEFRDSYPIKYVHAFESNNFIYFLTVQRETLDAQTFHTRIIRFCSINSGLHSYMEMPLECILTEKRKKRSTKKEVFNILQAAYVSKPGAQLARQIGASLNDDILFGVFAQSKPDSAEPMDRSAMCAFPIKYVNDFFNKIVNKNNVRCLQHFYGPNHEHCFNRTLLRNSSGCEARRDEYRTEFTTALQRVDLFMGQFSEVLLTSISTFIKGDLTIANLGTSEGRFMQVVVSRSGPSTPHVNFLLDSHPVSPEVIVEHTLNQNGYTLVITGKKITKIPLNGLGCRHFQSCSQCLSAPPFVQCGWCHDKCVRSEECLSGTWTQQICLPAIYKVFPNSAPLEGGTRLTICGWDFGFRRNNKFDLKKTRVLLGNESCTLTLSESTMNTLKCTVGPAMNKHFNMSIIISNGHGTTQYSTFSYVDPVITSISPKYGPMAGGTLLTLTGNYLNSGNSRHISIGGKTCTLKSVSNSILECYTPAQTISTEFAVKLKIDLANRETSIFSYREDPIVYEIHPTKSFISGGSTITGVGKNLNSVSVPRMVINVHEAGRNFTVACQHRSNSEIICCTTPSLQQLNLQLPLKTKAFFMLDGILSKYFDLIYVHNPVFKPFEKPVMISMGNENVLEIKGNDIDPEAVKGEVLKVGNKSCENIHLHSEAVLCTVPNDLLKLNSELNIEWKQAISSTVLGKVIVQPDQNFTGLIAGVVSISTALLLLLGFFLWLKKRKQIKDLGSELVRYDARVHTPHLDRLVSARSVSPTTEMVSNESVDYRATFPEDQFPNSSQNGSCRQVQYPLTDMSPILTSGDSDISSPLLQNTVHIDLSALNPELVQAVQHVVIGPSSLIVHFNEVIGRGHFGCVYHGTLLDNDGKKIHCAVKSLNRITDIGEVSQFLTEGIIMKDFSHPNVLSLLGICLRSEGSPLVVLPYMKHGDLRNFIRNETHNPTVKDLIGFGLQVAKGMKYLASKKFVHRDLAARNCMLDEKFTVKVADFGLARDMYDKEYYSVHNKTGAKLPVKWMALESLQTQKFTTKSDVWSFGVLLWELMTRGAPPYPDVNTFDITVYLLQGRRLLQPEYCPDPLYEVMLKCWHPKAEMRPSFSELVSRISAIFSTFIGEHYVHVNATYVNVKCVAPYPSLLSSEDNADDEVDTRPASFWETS

| SMILES | IC50 (MKN-45) [nM] | IC50 (NCI-H460 [1]) [nM] | IC50 (U-87 MG) [nM] | IC50 (HT-29 [2]) [nM] | IC50 (A549 [3]) [nM] | IC50 [4] [nM] | Ratio IC50 (HT-29 [5]) | Ratio IC50 (A549 [6]) | Ratio IC50 (NCI-H460 [7]) |
| --- | --- | --- | --- | --- | --- | --- | --- | --- | --- |
| COc1cc2c(Oc3ccc(NC(=O)c4nc5ccccc5n(C5CCCC5)c4=O)cc3F)ccnc2cc1OCCCN1CCCCC1 | 1170 | 3080 | 5210 | 4190 | 4360 | – | – | – | – |
| COc1cc2c(Oc3ccc(NC(=O)c4nc5ccccc5n(CCc5ccccc5)c4=O)cc3F)ccnc2cc1OCCCN1CCC(C)CC1 | 650 | 1070 | 2740 | 1410 | 1920 | – | – | – | – |
| COc1cc2c(Oc3ccc(NC(=O)c4nc5ccccc5n(C5CCCC5)c4=O)cc3F)ccnc2cc1OCCCN1CCC(C)CC1 | 3660 | 2150 | 5390 | 4430 | 5790 | – | – | – | – |
| COc1cc2c(Oc3ccc(NC(=O)c4nc5ccccc5n(CCc5ccccc5)c4=O)cc3F)ccnc2cc1OCCCN1CCN(C)CC1 | 310 | 450 | 1260 | 960 | 1040 | – | – | – | – |
| COc1ccc(CCn2c(=O)c(C(=O)Nc3ccc(Oc4ccnc5cc(OCCCN6CCC(C)CC6)c(OC)cc45)c(F)c3)nc3ccccc32)cc1 | 410 | 510 | 2270 | 1220 | 550 | – | – | – | – |
| COc1cc2c(Oc3ccc(NC(=O)c4nc5ccccc5n(Cc5ccc(F)cc5)c4=O)cc3F)ccnc2cc1OCCCN1CCCCC1 | 220 | 870 | 2120 | 720 | 1290 | – | – | – | – |
| COc1cc2c(Oc3ccc(NC(=O)c4nc5ccccc5n(Cc5ccc(F)cc5)c4=O)cc3F)ccnc2cc1OCCCN1CCC(C)CC1 | 250 | 620 | 1960 | 380 | 480 | 2.56 | – | – | – |
| COc1cc2c(Oc3ccc(NC(=O)c4nc5ccccc5n(Cc5ccc(F)cc5)c4=O)cc3F)ccnc2cc1OCCCN1CCN(C)CC1 | 230 | 2240 | 1730 | 1830 | 2770 | – | – | – | – |
| COc1ccc(CCn2c(=O)c(C(=O)Nc3ccc(Oc4ccnc5cc(OCCCN6CCOCC6)c(OC)cc45)c(F)c3)nc3ccccc32)cc1 | 230 | 2330 | 12800 | 4940 | 6230 | – | – | – | – |
| COc1cc2c(Oc3ccc(NC(=O)c4nc5ccccc5n(CCc5ccccc5)c4=O)cc3F)ccnc2cc1OCCCN1CCOCC1 | 780 | 1590 | 1350 | 350 | 910 | – | – | – | – |
| COc1cc2c(Oc3ccc(NC(=O)c4nc5ccccc5n(C5CCCCC5)c4=O)cc3F)ccnc2cc1OCCCN1CCOCC1 | 180 | 180 | 810 | 380 | 390 | 1.42 | 5 | 5 | 5 |
| COc1ccc(CCn2c(=O)c(C(=O)Nc3ccc(Oc4ccnc5cc(OCCCN6CCCCC6)c(OC)cc45)c(F)c3)nc3ccccc32)cc1 | 480 | 450 | 1600 | 940 | 1010 | – | – | – | – |
| COc1cc2c(Oc3ccc(NC(=O)c4nc5ccccc5n(C5CCCC5)c4=O)cc3F)ccnc2cc1OCCCN1CCOCC1 | 3500 | 1670 | 2990 | 4030 | 2480 | – | – | – | – |
| COc1cc2c(Oc3ccc(NC(=O)c4nc5ccccc5n(Cc5ccc(F)cc5)c4=O)cc3F)ccnc2cc1OCCCN1CCOCC1 | 260 | 930 | 650 | 2380 | 2020 | – | – | – | – |
| COc1cc2c(Oc3ccc(NC(=O)c4nc5ccccc5n(C5CCCCC5)c4=O)cc3F)ccnc2cc1OCCCN1CCCCC1 | 270 | 270 | 760 | 270 | 810 | – | – | – | – |
| COc1cc2c(Oc3ccc(NC(=O)c4nc5ccccc5n(CCc5ccccc5)c4=O)cc3F)ccnc2cc1OCCCN1CCCCC1 | 180 | 2110 | 3620 | 870 | 2360 | – | – | – | – |
| COc1cc2c(Oc3ccc(NC(=O)c4nc5ccccc5n(C5CCCCC5)c4=O)cc3F)ccnc2cc1OCCCN1CCN(C)CC1 | 230 | 230 | 560 | 230 | 320 | 2.34 | 5 | 5 | 5 |
| COc1cc2c(Oc3ccc(NC(=O)c4nc5ccccc5n(C5CCCC5)c4=O)cc3F)ccnc2cc1OCCCN1CCN(C)CC1 | 3720 | 2110 | 1590 | 2490 | 4370 | – | – | – | – |
| COc1ccc(CCn2c(=O)c(C(=O)Nc3ccc(Oc4ccnc5cc(OCCCN6CCN(C)CC6)c(OC)cc45)c(F)c3)nc3ccccc32)cc1 | 4170 | 3300 | > 10000 | 790 | 1670 | – | – | – | – |
| COc1cc2c(Oc3ccc(NC(=O)c4nc5ccccc5n(Cc5ccccc5)c4=O)cc3F)ccnc2cc1OCCCN1CCOCC1 | 2790 | 6700 | 4280 | 1120 | 5330 | – | – | – | – |
| COc1cc2c(Oc3ccc(NC(=O)c4nc5ccccc5n(C5CCCCC5)c4=O)cc3F)ccnc2cc1OCCCN1CCC(C)CC1 | 250 | 250 | 1670 | 610 | 1070 | – | – | – | – |
